Test results reported in patent US12161722B2, “Bifunctional heterocyclic compound having BTK degradation function via ubiquitin proteasome pathway, and use thereof” (KOREA RESEARCH INSTITUTE OF CHEMICAL TECHNOLOGY, priority 2021, dated 2024).

Each compound was assayed against T1, WT BTK protein (Homo sapiens, UniProt Q06187) (assay: BTK protein degradation assay (Western blotting), WT BTK). Conditions: concentration range accounting for 50% degradation of WT BTK protein, TMD-8 or RAMOS cells, 24 hours.
T1 construct: measured for intracellular BTK protein levels by Western blotting; endogenous in cells; host or cells: TMD-8 or RAMOS cells
T1 sequence (Q06187 whole entry): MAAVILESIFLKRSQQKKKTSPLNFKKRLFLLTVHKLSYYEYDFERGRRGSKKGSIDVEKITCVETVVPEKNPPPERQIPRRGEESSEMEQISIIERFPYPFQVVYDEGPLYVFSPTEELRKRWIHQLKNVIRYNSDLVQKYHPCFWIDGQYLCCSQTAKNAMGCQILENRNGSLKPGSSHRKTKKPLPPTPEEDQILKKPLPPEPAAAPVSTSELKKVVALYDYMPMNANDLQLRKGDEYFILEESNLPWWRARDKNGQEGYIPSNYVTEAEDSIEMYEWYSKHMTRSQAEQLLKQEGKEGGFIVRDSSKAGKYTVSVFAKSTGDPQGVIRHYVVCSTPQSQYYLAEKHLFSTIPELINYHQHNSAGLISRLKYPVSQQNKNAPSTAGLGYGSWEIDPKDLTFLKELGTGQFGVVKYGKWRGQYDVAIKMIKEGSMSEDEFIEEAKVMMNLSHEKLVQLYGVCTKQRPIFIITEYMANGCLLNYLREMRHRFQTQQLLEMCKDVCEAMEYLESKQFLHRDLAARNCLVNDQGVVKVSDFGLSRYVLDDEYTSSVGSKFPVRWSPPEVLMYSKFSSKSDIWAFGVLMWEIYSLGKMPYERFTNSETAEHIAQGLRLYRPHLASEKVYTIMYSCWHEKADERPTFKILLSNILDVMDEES
Type: cell-based
Summary of the method: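 TMD-8 cells (1×10^6 cells/mL) treated 24 h with compound serial dilutions, then lysed in RIPA. Equal protein loads analysed by Western blot for BTK with GAPDH/β-actin as loading controls; activity binned by concentration giving 50% WT BTK degradation.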

Compound | DC50 [nM]
Cc1cccc(C)c1Nc1nn(C)c2nc(Nc3ccc4c(c3)CN(C(=O)CC3(O)CCN(c5ccc6c(c5)C(=O)N(C5CCC(=O)NC5=O)C6=O)CC3)CC4)ncc12 (stereo not shown) [Compound 129, 5-(4-(2-(7-((3-((2,6-dimethylphenyl)amino)-1-methyl-1H-pyrazolo[3,4-d]pyrimidin-6-yl)amino)-3,4-dihydroisoquinolin-2 (1H)-yl)-2-oxoethyl)-4-hydroxypiperidin-1-yl)-2-(2,6-dioxopiperidin-3-yl)isoindoline-1,3-dione] | 0.1 to 10
Cc1cccc(C)c1Nc1nn(C)c2nc(Nc3ccc(C4CCN(C[C@H]5CCN(c6ccc7c(c6)C(=O)N(C6CCC(=O)NC6=O)C7=O)C5)CC4)cc3)ncc12 (stereo partly drawn) [Compound 166, 5-((R)-3-((4-(4-((3-((2,6-Dimethylphenyl)amino)-1-methyl-1H-pyrazolo[3,4-d]pyrimidin-6-yl)amino)phenyl)piperidin-1-yl)methyl)pyrrolidin-1-yl)-2-(2,6-dioxopiperidin-3-yl)isoindoline-1,3-dione] | 0.1 to 10
Cc1cccc(C)c1Nc1nn(C)c2nc(Nc3ccc4c(c3)CN(C(=S)C3CCN(c5ccc6c(c5)C(=O)N(C5CCC(=O)NC5=O)C6=O)CC3)CC4)ncc12 (stereo not shown) [Compound 232, 5-(4-(7-((3-((2,6-dimethylphenyl)amino)-1-methyl-1H-pyrazolo[3,4-d]pyrimidin-6-yl)amino)-1,2,3,4-tetrahydroisoquinoline-2-carbonothioyl)piperidin-1-yl)-2-(2,6-dioxopiperidin-3-yl)isoindoline-1,3-dione] | 0.1 to 10
Cc1cccc(C)c1Nc1nn(C)c2nc(Nc3cccc(N4CCN(CC5CCN(c6ccc7c(c6)C(=O)N(C6CCC(=O)NC6=O)C7=O)CC5)CC4)c3)ncc12 (stereo not shown) [Compound 136, 5-(4-((4-(3-((3-((2,6-dimethylphenyl)amino)-1-methyl-1H-pyrazolo[3,4-d]pyrimidin-6-yl)amino)phenyl)piperazin-1-yl)methyl)piperidin-1-yl)-2-(2,6-dioxopiperidin-3-yl)isoindoline-1,3-dione] | 0.1 to 10
Cc1cccc(C)c1Nc1nn(C)c2nc(Nc3ccc(C4CN(C[C@H]5CCN(c6ccc7c(c6)C(=O)N(C6CCC(=O)NC6=O)C7=O)C5)C4)cc3)ncc12 (stereo partly drawn) [Compound 176, 5-((R)-3-((3-(4-((3-((2,6-dimethylphenyl)amino)-1-methyl-1H-pyrazolo[3,4-d]pyrimidin-6-yl)amino)phenyl)azetidin-1-yl)methyl)pyrrolidin-1-yl)-2-(2,6-dioxopiperidin-3-yl)isoindoline-1,3-dione] | 0.1 to 10
Cc1cccc(C)c1Nc1nn(C)c2nc(Nc3ccc4c(c3)CN(C(=O)C3CCN(C(=O)CN5CCN(c6ccc7c(c6)C(=O)N(C6CCC(=O)NC6=O)C7=O)CC5)CC3)CC4)ncc12 (stereo not shown) [Compound 44, 5-(4-(2-(4-(7-((3-((2,6-Dimethylphenyl)amino)-1-methyl-1H-pyrazolo[3,4-d]pyrimidin-6-yl)amino)-1,2,3,4-tetrahydroisoquinoline-2-carbonyl)piperidin-1-yl)-2-oxoethyl)piperazin-1-yl)-2-(2,6-dioxopiperidin-3-yl)isoindoline-1,3-dione] | 0.1 to 10
Cc1cccc(C)c1Nc1nn(C)c2nc(Nc3ccc(N4CCC(CN5CCN(c6ccc7c(c6)C(=O)N(C6CCC(=O)NC6=O)C7=O)CC5)CC4)nc3)ncc12 (stereo not shown) [Compound 135, 5-(4-((1-(5-((3-((2,6-Dimethylphenyl)amino)-1-methyl-1H-pyrazolo[3,4-d]pyrimidin-6-yl)amino)pyridin-2-yl)piperidin-4-yl)methyl)piperazin-1-yl)-2-(2,6-dioxopiperidin-3-yl)isoindoline-1,3-dione] | 0.1 to 10
Cc1cccc(C)c1Nc1nn(C(C)C)c2nc(Nc3ccc4c(c3)CN(CC3CCN(c5ccc6c(c5)C(=O)N(C5CCC(=O)NC5=O)C6=O)CC3)CC4)ncc12 (stereo not shown) [Compound 86, 5-(4-((7-((3-((2,6-Dimethylphenyl)amino)-1-isopropyl-1H-pyrazolo[3,4-d]pyrimidin-6-yl)amino)-3,4-dihydroisoquinolin-2 (1H)-yl)methyl)piperidin-1-yl)-2-(2,6-dioxopiperidin-3-yl)isoindoline-1,3-dione] | 0.1 to 10
Cc1cccc(C)c1Nc1nn(C)c2nc(Nc3ccc4c(c3)CN(CC(=O)N3CCC(Oc5ccc6c(c5)CN(C5CCC(=O)NC5=O)C6=O)CC3)CC4)ncc12 (stereo not shown) [Compound 106, 3-(5-((1-(2-(7-((3-((2,6-dimethylphenyl)amino)-1-methyl-1H-pyrazolo[3,4-d]pyrimidin-6-yl)amino)-3,4-dihydroisoquinolin-2 (1H)-yl)acetyl)piperidin-4-yl)oxy)-1-oxoisoindolin-2-yl)piperidin-2,6-one] | 10 to 1000
COCCOc1cc(C)c(Nc2nn(C)c3nc(Nc4ccc5c(c4)CN(CC4CCN(c6ccc7c(c6)C(=O)N(C6CCC(=O)NC6=O)C7=O)CC4)CC5)ncc23)c(C)c1 (stereo not shown) [Compound 76, 2-(2,6-Dioxopiperidin-3-yl)-5-(4-((7-((3-((4-(2-methoxyethoxy)-2,6-dimethylphenyl)amino)-1-methyl-1H-pyrazolo[3,4-d]pyrimidin-6-yl)amino)-3,4-dihydroisoquinolin-2 (1H)-yl)methyl)piperidin-1-yl)isoindoline-1,3-dione] | 10 to 1000
Cc1cccc(C)c1Nc1nn(C)c2nc(Nc3ccc(C4CCN(C(=O)CC5CCN(c6ccc7c(c6)C(=O)N(C6CCC(=O)NC6=O)C7=O)CC5)CC4)cc3)ncc12 (stereo not shown) [Compound 222, 5-(4-(2-(4-(4-((3-((2,6-Dimethylphenyl)amino)-1-methyl-1H-pyrazolo[3,4-d]pyrimidin-6-yl)amino)phenyl)piperidin-1-yl)-2-oxoethyl)piperidin-1-yl)-2-(2,6-dioxopiperidin-3-yl)isoindoline-1,3-dione] | 0.1 to 10
Cc1cccc(C)c1Nc1nn(C)c2nc(Nc3ccc(N4CCN(CC5CN(c6ccc7c(c6)C(=O)N(C6CCC(=O)NC6=O)C7=O)C5)[C@H](C)C4)cc3)ncc12 (stereo partly drawn) [Compound 186, 5-(3-(((R)-4-(4-((3-((2,6-Dimethylphenyl)amino)-1-methyl-1H-pyrazolo[3,4-d]pyrimidin-6-yl)amino)phenyl)-2-methylpiperazin-1-yl)methyl)azetidin-1-yl)-2-(2,6-dioxopiperidin-3-yl)isoindoline-1,3-dione] | 0.1 to 10
Cc1cccc(C)c1Nc1nn(C)c2nc(Nc3ccc4c(c3)CN(C(=O)/C(C#N)=C/C3CCN(C(=O)COc5ccc6c(c5)C(=O)N(C5CCC(=O)NC5=O)C6=O)CC3)CC4)ncc12 (stereo not shown) [Compound 241, (E)-2-(7-((3-((2,6-dimethylphenyl)amino)-1-methyl-1H-pyrazolo[3,4-d]pyrimidin-6-yl)amino)-1,2,3,4-tetrahydroisoquinoline-2-carbonyl)-3-(1-(2-((2-(2,6-dioxopiperidin-3-yl)-1,3-dioxoisoindolin-5-yl)oxy)acetyl)piperidin-4-yl)acrylonitrile] | 0.1 to 10
Cc1cccc(C)c1Nc1nn(C)c2nc(Nc3ccc4c(c3)CN(CC3CCN(CC(=O)Nc5ccc6c(c5)C(=O)N(C5CCC(=O)NC5=O)C6=O)CC3)CC4)ncc12 (stereo not shown) [Compound 90, 2-(4-((7-((3-((2,6-Dimethylphenyl)amino)-1-methyl-1H-pyrazolo[3,4-d]pyrimidin-6-yl)amino)-3,4-dihydroisoquinolin-2 (1H)-yl)methyl)piperidin-1-yl)-N-(2-(2,6-dioxopiperidin-3-yl)-1,3-dioxoisoindolin-5-yl)acetamide] | 10 to 1000
Cc1cccc(C)c1Nc1nn(C)c2nc(Nc3ccc4c(c3)CN(C(=O)C3(F)CCN(C(=O)COc5ccc6c(c5)C(=O)N(C5CCC(=O)NC5=O)C6=O)CC3)CC4)ncc12 (stereo not shown) [Compound 248, 5-(2-(4-(7-((3-((2,6-Dimethylphenyl)amino)-1-methyl-1H-pyrazolo[3,4-d]pyrimidin-6-yl)amino)-1,2,3,4-tetrahydroisoquinoline-2-carbonyl)-4-fluoropiperidin-1-yl)-2-oxoethoxy)-2-(2,6-dioxopiperidin-3-yl)isoindoline-1,3-dione] | 0.1 to 10
Cc1cccc(C)c1Nc1nn(C)c2nc(Nc3ccc4c(c3)CN(C(=O)[C@@H]3CCCN3C(=O)COc3ccc5c(c3)C(=O)N(C3CCC(=O)NC3=O)C5=O)CC4)ncc12 (stereo partly drawn) [Compound 34, 5-(2-((S)-2-(7-((3-((2,6-Dimethylphenyl)amino)-1-methyl-1H-pyrazolo[3,4-d]pyrimidin-6-yl)amino)-1,2,3,4-tetrahydroisoquinoline-2-carbonyl)pyrrolidin-1-yl)-2-oxoethoxy)-2-(2,6-dioxopiperidin-3-yl)isoindoline-1,3-dione] | 10 to 1000
Cc1cccc(C)c1Nc1nn(C)c2nc(Nc3ccc4c(c3)CCN(C[C@@H]3CCN(c5ccc6c(c5)C(=O)N(C5CCC(=O)NC5=O)C6=O)C3)C4)ncc12 (stereo partly drawn) [Compound 174, 5-((S)-3-((6-((3-((2,6-Dimethylphenyl)amino)-1-methyl-1H-pyrazolo[3,4-d]pyrimidin-6-yl)amino)-3,4-dihydroisoquinolin-2 (1H)-yl)methyl)pyrrolidin-1-yl)-2-(2,6-dioxopiperidin-3-yl)isoindoline-1,3-dione] | 0.1 to 10
Cn1nc(Nc2c(Cl)cccc2Br)c2cnc(Nc3ccc4c(c3)CN(CC3CCN(c5ccc6c(c5)C(=O)N(C5CCC(=O)NC5=O)C6=O)CC3)CC4)nc21 (stereo not shown) [Compound 218, 5-(4-((7-((3-((2-Bromo-6-chlorophenyl)amino)-1-methyl-1H-pyrazolo[3,4-d]pyrimidin-6-yl)amino)-3,4-dihydroisoquinolin-2 (1H)-yl)methyl)piperidin-1-yl)-2-(2,6-dioxopiperidin-3-yl)isoindoline-1,3-dione] | 0.1 to 10
Cc1cccc(C)c1Nc1nn(C)c2nc(Nc3ccc4c(c3)CN(C3CCN(CC5CCN(c6ccc7c(c6)C(=O)N(C6CCC(=O)NC6=O)C7=O)CC5)CC3)CC4)ncc12 (stereo not shown) [Compound 139, 5-(4-((4-(7-((3-((2,6-Dimethylphenyl)amino)-1-methyl-1H-pyrazolo[3,4-d]pyrimidin-6-yl)amino)-3,4-dihydroisoquinolin-2 (1H)-yl)piperidin-1-yl)methyl)piperidin-1-yl)-2-(2,6-dioxopiperidin-3-yl)isoindoline-1,3-dione] | 0.1 to 10
